Data published in US10130647B2, “Use of ginsenoside M1 for preventing or treating silicosis” (WELLHEAD […]., priority 2015, dated 2018).

Assays:
Male C57BL/6 mice = experiment: Silica crystal-induced silicosis in mice, BALF analysis; assay type: in vivo, mouse; details: 60 mg/kg oral gavage daily day 0, 1, 2
Procedure: In FIG. 9-12, the animal experiments were conducted in accordance with the guidelines of the National Institutes of Health and approved by the Institutional Animal Care and Use Committee of National Ilan University. Male C57BL/6 mice were purchased from the National Laboratory Animal Center (Taipei, Taiwan). The animals were provided a chow diet and water ad libitum under conditions of 22-24° C., 40-70% relative humidity, and a 12 h light-dark cycle. Ginsenoside M1 (60 mg/kg body weight) was oral administered daily by gavage at day 0, 1 and 2. Silicosis in mice was induced by intratracheally exposed to 40 μl aqueous suspensions of 200 μg of silica crystals in PBS daily at day 0, 1 and 2 (n=6). Each day, mice exposed to silica crystals 4 h after Ginsenoside M1 administration. Control mice received PBS. After 4 h of the last silica crystals exposure, all mice were sacrificed using neck breaking, and a bronchoalveolar lavage was carried out by repeatedly instillating and withdrawing 1 ml of 1% BSA/PBS solution three consecutive times. The levels of IL-1β and IL-6 in the bronchoalveolar lavage fluid (BALF) were measured by ELISA. The total cell number in the BALF was counted by a hematocytometer and protein concentration in the BALF was determined by protein assay dye.
(§1) For ELISA assay, 50 μl of biotinylated antibody reagent and 50 μl of culture medium were added to an anti-IL-1β, TNF-α or IL-6 precoated stripwell plate, and incubated at room temperature for 2 h. After washing the plate three times with washing buffer, 100 μl of diluted streptavidin-HRP (horseradish peroxidase) concentrate was added to each well and incubated at room temperature for 30 min. The washing process was repeated; then 100 μl of a premixed tetramethylbenzidine substrate solution was added to each well and developed at room temperature in the dark for 30 min Following the addition of 100 μl of provided stop solution to each well to stop the reaction, the absorbance of the plate was measured by a microplate reader at a 450 nm wavelength.

[1] = system: mouse J774A.1 macrophages; experiment: Silica crystal-induced IL-1β production in LPS-treated J774A.1 macrophages (ELISA); assay type: cell-based; details: M1 30 min, then 1 μg/ml LPS, then 200 μg/ml silica crystal 24 h, FIG. 1, p<0.001 vs silica crystals alone
Procedure: The levels of IL-1β in the culture medium were measured by ELISA. *** indicates a significant difference at the level of p<0.001 compared to […].
In FIG. 1, J774A.1 macrophages (1×10^5 cells/500 μl medium/well) were incubated for 30 min with or without Ginsenoside M1, then for 2 h with or without 1 μg/ml LPS (from Escherichia coli 0111:B4, purchased from Sigma, St. Louis, Mo.) in the continued presence or absence of Ginsenoside M1, and then for 24 h with or without 200 μg/ml silica crystal (purchased from InvivoGen, San Diego, Calif.). The levels of IL-1β in the culture medium were measured by ELISA.
as §1, with “wavelength. […]” for “wavelength.”

human THP-1 macrophages = experiment: Silica crystal-induced cytokine production in THP-1 macrophages, Ginsenoside M1 added before LPS (ELISA); assay type: cell-based; details: M1 30 min, then 1 μg/ml LPS 5 h, then 200 μg/ml silica crystal 24 h
Procedure: The levels of IL-1β in the culture medium were measured by ELISA. ** indicates a significant difference at the level of p<0.01 compared to silica crystal alone.
The levels of TNF-α in the culture medium were measured by ELISA. ** and *** indicates a significant difference at the level of p<0.01 and p<0.001, respectively compared to silica crystal alone.
The levels of IL-6 in the culture medium were measured by ELISA. * and *** indicates a significant difference at the level of p<0.05 and p<0.001, respectively compared to silica crystal alone.
(§2) The mouse macrophages cell line J774A.1 and human monocytic leukemia cell line THP-1 was obtained from the American Type Culture Collection (Rockville, Md.) and cultured in RPMI 1640 medium supplemented with 10% heat-inactivated fetal bovine serum (FBS) and 2 mM L-glutamine (all from Life Technologies, Carlsbad, Calif.) at 37° C. in a 5% CO2 incubator. To induce monocyte-to-macrophage differentiation, THP-1 cells were cultured for 48 h in RPMI-1640 medium supplemented with 100 nM phorbol 12-myristate 13-acetate (Sigma-Aldrich).
In FIG. 3-5, THP-1 macrophages (1×10^5 cells/500 μl medium/well) were incubated for 30 min with or without Ginsenoside M1, then for 5 h with or without 1 μg/ml LPS in the continued presence or absence of Ginsenoside M1, and then for 24 h with or without 200 μg/ml silica crystal (purchased from InvivoGen, San Diego, Calif.). The levels of IL-1β (FIG. 3), TNF-α (FIG. 4) and IL-6 (FIG. 5) in the culture medium were measured by ELISA.
as §1, with “After washing the plate three times with washing buffer, 100 μl of diluted streptavidin-HRP (horseradish peroxidase) concentrate was added to each well and incubated at room temperature for 30 min.” left out, “wavelength. […]” for “wavelength.”

[2] = system: LPS-primed THP-1 macrophages; experiment: Silica crystal-induced cytokine production in LPS-primed THP-1 macrophages, Ginsenoside M1 added after LPS priming (ELISA); assay type: cell-based, human; details: THP-1 primed 5 h with 1 μg/ml LPS, then M1 30 min, then 200 μg/ml silica crystal 24 h
Procedure: The levels of IL-1β in the culture medium were measured by ELISA. ** and *** indicates a significant difference at the level of p<0.01 and p<0.001, respectively compared to silica crystal alone.
The levels of TNF-α in the culture medium were measured by ELISA. ** indicates a significant difference at the level of p<0.01 compared to silica crystal alone.
The levels of IL-6 in the culture medium were measured by ELISA. *** indicates a significant difference at the level of p<0.001 compared to silica crystal alone.
as §2
In FIG. 6-8, THP-1 macrophages (1×10^5 cells/500 μl medium/well) were incubated for 5 h with or without 1 μg/ml LPS, then for 30 min with or without Ginsenoside M1 in the continued presence or absence of LPS, and then for 24 h with or without 200 μg/ml silica crystal. The levels of IL-1β (FIG. 6), TNF-α (FIG. 7) and IL-6 (FIG. 8) in the culture medium were measured by ELISA.
as §1, with “After washing the plate three times with washing buffer, 100 μl of diluted streptavidin-HRP (horseradish peroxidase) concentrate was added to each well and incubated at room temperature for 30 min.” left out, “wavelength. […]” for “wavelength.”

[3] = system: mouse J774A.1 macrophages; experiment: LPS-induced NLRP3 and proIL-1β expression in J774A.1 macrophages (Western blot); assay type: cell-based; details: M1 30 min, then 1 μg/ml LPS 6 h, FIG. 2
Procedure: The levels of NLRP3 and […] in the cell lysates were measured by Western blot.
In FIG. 2, J774A.1 macrophages (2×10^6 cells/2 ml medium/dish) were incubated for 30 min with or without Ginsenoside M1, then for 6 h with or without 1 μg/ml LPS in the continued presence or absence of Ginsenoside M1. The levels of NLRP3 and proIL-1β in the cell lysates were measured by Western blot. In brief, After treatment, the cells were collected and lysed at 4° C. in lysis buffer (25 mM Tris-HCl, pH 7.5, 100 mM NaCl, 2.5 mM EDTA, 2.5 mM EGTA, 20 mM NaF, 1 mM Na3VO4, 20 mM sodium β-glycerophosphate, 10 mM sodium pyrophosphate, 0.5% Triton X-100) containing protease inhibitor cocktail (Sigma, St. Louis, Mo.), then the whole cell lysate was separated by SDS-PAGE and electrotransferred to a PVDF membrane. The membranes were incubated for 1 h at room temperature in blocking solution (5% nonfat milk in phosphate buffered saline with 0.1% Tween 20), then were incubated for 2 h at room temperature with NLRP3 or proIL-1β antibody in blocking solution. […]
J774A.1 macrophages were incubated for 30 min with or without Ginsenoside M1, then for 6 h with or without 1 μg/ml LPS in the continued presence or absence of Ginsenoside M1. The levels of NLRP3 and proIL-1β in the cell lysates were measured by Western blot.

20-O-β-D-glucopyranosyl-20(S)-protopanaxadiol [Ginsenoside M1]
silica crystal-induced IL-1β production in the murine BALF (Male C57BL/6 mice; intratracheal 200 μg silica crystals 4 h after dosing, FIG. 9, p<0.001): significantly reduced
silica crystal-induced IL-6 production in the murine BALF (Male C57BL/6 mice; intratracheal 200 μg silica crystals 4 h after dosing, FIG. 10, p<0.001): significantly reduced
silica crystal-induced increase of total cell number in BALF (Male C57BL/6 mice; intratracheal 200 μg silica crystals, hematocytometer, FIG. 12, p<0.01): significantly inhibited
silica crystal-induced increase of total protein concentration in BALF (Male C57BL/6 mice; intratracheal 200 μg silica crystals, protein assay dye, FIG. 11, p<0.001): significantly inhibited
IL-1β secretion in the culture medium [1]: reduced
IL-1β production (human THP-1 macrophages; FIG. 3, p<0.01): reduced
TNF-α production (human THP-1 macrophages; FIG. 4, p<0.01 and p<0.001): reduced
IL-6 production (human THP-1 macrophages; FIG. 5, p<0.05 and p<0.001): reduced
IL-1β production ([2]; FIG. 6, p<0.01 and p<0.001): reduced
TNF-α production ([2]; FIG. 7, p<0.01): reduced
IL-6 production ([2]; FIG. 8, p<0.001): reduced
level of NLRP3 in the cell lysates [3]: reduced
level of proIL-1β in the cell lysates [3]: reduced
